The text below walks through data of publication PMC11304236, “A Novel Drug Candidate for Sepsis Targeting Heparanase by Inhibiting Cytokine Storm” (Advanced Science, 2024).

For data set [1], the system named is TNF-α, IL-6, IL-1β. The data set is described as follows: Cytokine ELISA in serum and organs of LPS-induced septic mice. The format is in vivo, mouse. The note with it: 40 mg kg−1, 30 min after LPS 20 mg kg−1 i.p.; 3 h after LPS; vs LPS group. As to the method:
For LPS‐induced sepsis model experiments, twenty male C57BL/6J mice were randomly divided into four groups (n = 5 in each group). Mice in group 1 were injected with 0.9% NaCl, while mice in groups 2–4 were injected intraperitoneally with LPS (20 mg kg^−1). After 30 min, mice in group 3 were injected with 40 mg kg^−1 CV122 and mice in group 4 were injected with 40 mg kg^−1 Suramin. After 3 h, blood was taken and the lungs, liver, spleen, kidney heart, and brain were taken. For CLP experiments, the mice were euthanized 24 h after the establishment of the sepsis model. Blood samples were collected from the eyeballs of mice, the lungs were taken. These organs were ground at 0.1 g mL^−1 in PBS, centrifuged and the supernatant collected. Serum and organ tissue supernatants were used to detect cytokine levels using the mouse TNF‐α, IL‐6, IL‐1β ELISA MAXTM Deluxe Set.

Data set [2] concerns LPS-induced septic mice. In words: LPS-induced sepsis mouse model, survival. It counts as in vivo. To be noted: 40 mg kg−1 s.c. 30 min after LPS 40 mg kg−1 i.p.; 80 h or longer observation; LPS group 0%. As to the method:
For LPS‐induced sepsis model experiments, 25 male C57BL/6J mice, 6–8 weeks old, weighing 20–25 g, were randomly divided into five groups (n = 5 in each group), and survival was examined. The abdominal cavity was injected with 40 mg kg^−1 LPS to induce sepsis. 30 min later, mice in group 1 were injected subcutaneously with 0.9% NaCl, mice in groups 2–4 were injected subcutaneously with CV122 (20 mg kg^−1), CV122 (30 mg kg^−1), and CV122 (40 mg kg^−1), respectively, and mice in group 5 were injected subcutaneously with Suramin (40 mg kg^−1). The status of the mice was observed and recorded every day.

For data set [3], the system named is HUVECs. The data set is described as follows: Cell survival assay (CCK-8) in HUVECs. It counts as cell-based, human.

As for `Cc1ccc(C(=O)Nc2ccc(S(=O)(=O)O)c3cc(S(=O)(=O)O)cc(S(=O)(=O)O)c23)cc1NC(=O)c1cccc(NC(=O)Nc2cccc(C(=O)Nc3cc(C(=O)Nc4ccc(S(=O)(=O)O)c5cc(S(=O)(=O)O)cc(S(=O)(=O)O)c45)ccc3C)c2)c1` [Suramin, reference compound], the “TNF-α, IL-6 and IL-1β levels in serum and lungs” value in data set [1] is “suppress the cytokine release but to a lesser extent”. This compound also yielded a survival rate in data set [2] of 60%. Also, the “effect on survival of HUVECs” value is “significant inhibitory effect” in data set [3] (100 µM, *p < 0.05) and “significant inhibitory effect” in data set [3] (200 µM, **p < 0.01).
